Laboratory results: patent US6130220A, “Sulfamide-metalloprotease inhibitors” (Syntex (USA) Inc., priority 1999, dated 2000)

Experiments:
[1] = test system: TNF-α; assay: Inhibition of LPS induced TNF-α production in mice in vivo; conditions: s.c. compound, LPS 50 μg/mouse i.p. 1 h later, blood after 1.5 h
Method: The activity of compounds of this invention in inhibiting the TNF-α release was determined, using a minor modification of the methods described in Zanetti, G.; Heumann, D., et. al., "Cytokine production after intravenous or peritoneal Gram-negative bacterial challenge in mice" J. Immunol., 148, 1890, (1992) and Sekut, L., Menius, J. A., et. al., "Evaluation if the significance of elevated levels of systemic and localized tumor necrosis factor in different animal models of inflammation" J. Lab. Clin. Med., 124, 813, (1994).
Female Balbic mice were anesthetized and injected subcutaneously with the test compounds dissolved in CMC vehicle or hydroxypropylmethyl cellulose based vehicle. Control animals received only the vehicle. After 1 h, LPS (50 μg/mouse, Sigma #13129, Sigma Chemical Co., St. Louis, Mo.) was injected intraperitoneally. After 1.5 h, blood was collected from the retro-rbital plexus region of the animals in a miicrotainer serum separator tube (Becton Dickinson, Cat. No. #5960, Becton Dickinson & Co., Franklin Lakes, N.J.). The sera was separated and the amount of TNF-α was determined using the EM-TNFA® kit (Endogen, Woburn, Mass.) by following the manufacturer's protocol.

[2] = test system: TNF-α release from Human Monomac 6 cells; assay: Inhibition of TNF release in vitro, Monomac 6 cells, LPS/PMA; assay type: cell-based; conditions: 2 h; for inhibition at 10 µM: MONO-MAC-6, 10 μM, read-out: TNF-α % inhibition, Conc. 10 μM; for inhibition at 2 µM: MONO-MAC-6, 2 μM, read-out: TNF-α % inhibition, Conc. 2 μM
Method: The activity of compounds of this invention in inhibiting the TNF release was determined, using the a minor modification of the method described in Pradines-Figueres, A. and Raetz, C. R. H., J. Biol. Chem., 267 (32), 23261, (1992).
Human Monomac 6 cells (Ziegler-Heitbrock, H. W. L., et al., Int. J. Cancer, 41, 456, (1988)) were cultured at 37° C. in RPMI 1640 medium containing 10% fetal calf serum to a density of 1×10^5 cells/ml. 0.23 ml of these cells were placed in each well of a tissue culture plate and the cells were incubated for 15 min. The test compounds were dissolved in above mentioned medium and added and the incubation was continued for an additional 15 min. 10 μl of an lipopolysaccharide/phorbol-12-myristate-13-acetate (LPS/PMA) mixture was added such that the final concentration of lipopolysaccharide was 10 ng/ml and the final concentration of phorbol-12-myristate-13-acetate was 30 ng/ml. The cells were incubated for 2 h after which the plate was centrifuged and the medium was removed and analyzed for TNF content. The analysis was performed using a TNF Quantikine® Inmunoassay (R & D Systems, Minneapolis, Minn. 55413) by following the manufacturer's protocol.
The TNF-α inhibitory activity of test materials, i.e., the measure of the TNF-α content in the test group relative to the vehicle treated group (control group) was: […]

[3] = target: Collagenase-III; assay: MMP enzymatic assay, hydrolysis of MCA-Pro-Leu-Gly-Leu-DPA-Ala-Arg-NH2, Collagenase-III; assay type: biochemical; conditions: 37° C., pH 7.5, 2.5% DMSO
Method: The propeptide and catalytic domain portion of human collagenase-3 was expressed in E. Coli as an N-terminal fusion protein with ubiquitin. After purification, the catalytic domain was released by treatment with 1 mM APMA for 1 hour at 37° C., and then purified by zinc chelate chromatography.
Rat collagenase-3 was purified in active form from the culture media of uterine smooth muscle cells as described in Roswit, W. T. et al., Arch. Biochem. Biophys., 225, 285-295 (1983).
The matrix metalloprotease inhibitory activity of compounds of this invention in vitro was determined based on the hydrolysis of MCA-Pro-Leu-Gly-Leu-DPA-Ala-Arg-NH2 (Bachem, Inc.) at 37° C. as described in Knight, C. G., et al., FEBS Lett., 296, 263-266 (1992).
The matrix metalloprotease enzyme was diluted with assay buffer (50 mM Tricine pH 7.5, 200 mM NaCl, 10 mM CaCl2, and 0.005% Brij-35) containing 10 μmole of above substrate dissolved in DMSO. Compounds of the invention dissolved in DMSO or only DMSO (control samples) were added such that the final DMSO concentration in all assays was 2.5%. The fluorescence changes were monitored with a Perkin-Elmer LS-50B flourimeter using an excitation wavelength of 328 nm and an emission wavelength of 393 nm.

| IC50 [3] [nM] | SMILES | TNF-α % inhibition [1] [%] | inhibition at 10 µM [2] [%] | inhibition at 2 µM [2] [%] |
| --- | --- | --- | --- | --- |
| – | O=C(NO)C1CCCCN1S(=O)(=O)N1CCCCC1 (racemic) [compound 233] | 46 | – | – |
| – | O=C(NO)C1CCCCN1S(=O)(=O)N1CCN(c2ccc(Cl)cc2)CC1 (racemic) [compound 234, N-hydroxy-1-[4-(4-chlorophenyl)piperazine-1-sulfonyl]piperidine-2-(RS)-carboxamide] | 46 | – | – |
| 181 | O=C(NO)C1CCCCN1S(=O)(=O)N1CCC(c2c[nH]c3ccc(F)cc23)CC1 (racemic) [compound 254, N-hydroxy-1-[4-(5-fluoroindol-3-yl)piperidine-1-sulfonyl]piperidine-2-(RS)-carboxamide] | – | 94 | – |
| 0.19 | CC(=O)N1CCN(S(=O)(=O)N2CCC(C(=O)c3ccc(Cl)cc3)CC2)C(C(=O)NO)C1 (racemic) [compound 255, N-hydroxy-4-acetyl-1-[4-(4-chlorobenzoyl)piperidine-1-sulfonyl]piperazine-2-(RS)-carboxamide] | – | 97 | – |
| 33 | O=C(NO)C1CCCCN1S(=O)(=O)N1CCC(c2c[nH]c3cc(Cl)ccc23)CC1 (racemic) [compound 256, N-hydroxy-1-[4-(6-chloroindol-3-yl)piperidine-1-sulfonyl]piperidine-2-(RS)-carboxamide] | – | 79 | – |
| 0.063 | O=C(NO)C1CCCCN1S(=O)(=O)N1CCC(c2noc3cc(F)ccc23)CC1 (racemic) [compound 286, N-hydroxy-1-[4-(6-fluorobenzisoxazol-3-yl)piperidine-1-sulfonyl]piperidine-2-(RS)-carboxamide] | – | – | – |
| – | O=C(NO)C1CCCCN1S(=O)(=O)N1CC=C(c2ccc(Cl)cc2)CC1 (racemic) [compound 375, N-hydroxy-1-[4-(4-chlorophenyl)-1,2,3,6-tetrahydropyridine-1-sulfonyl]piperidine-2-(RS)-carboxamide] | – | – | 85 |
| – | Cc1cc(C2=CCN(S(=O)(=O)N3CCN(C(=O)OCc4ccccc4)CC3C(=O)NO)CC2)ccc1F (racemic) [compound 381, N-hydroxy-4-benzyloxycarbonyl-1-[4-(4-fluoro-3-methylphenyl)-1,2,3,6-tetrahydropyridine-1-sulfonyl]piperazine-2-(RS)-carboxamide] | – | – | 10 |
| – | Cc1cc(C2=CCN(S(=O)(=O)N3CCN(C(=O)OC(C)(C)C)CC3C(=O)NO)CC2)ccc1F (racemic) [compound 384] | – | 96 | – |
| 660 | CC(C)[C@H](C(=O)NO)N(Cc1ccccc1)S(=O)(=O)N1CCCCC1 [compound 1, N-hydroxy-2-(R)-[benzyl-(piperidine-1-sulfonyl)amino]-3-methylbutyramide] | – | – | – |
| 21 | COCCN(CC(=O)NO)S(=O)(=O)N1CCN(c2ccc(Cl)cc2)CC1 [compound 16] | – | < 15 | – |
| 0.92 | O=C(NO)[C@H](CSCc1ccccc1)NS(=O)(=O)N1CCN(c2ccc(Cl)cn2)CC1 [compound 102] | – | 56 | – |
| 0.59 | CC(C)[C@H](C(=O)NO)N(CCCc1cccnc1)S(=O)(=O)N1CCC(Oc2ccc(Br)cc2)CC1 [compound 105] | – | 20 | – |
| 18 | CC(C)[C@@H](NS(=O)(=O)N1CCC(c2nc(-c3ccccc3)c[nH]2)CC1)C(=O)NO [compound 133, N-hydroxy-2-(R)-{[4-(4-phenylirnidazol-2-yl)piperidine-1-sulfonyl]amino}-3-methylbutyramide] | – | 32 | – |
| – | CC(C)[C@@H](NS(=O)(=O)N1CCC(C(=O)c2ccc(Cl)cc2)CC1)C(=O)NO [compound 134] | 42 | – | – |
| 1.6 | C[C@@H](NS(=O)(=O)N1CCN(C(=O)Nc2ccc(Cl)cc2)CC1)C(=O)NO [compound 177, N-hydroxy-2-(R)-{[4-(4-chlorophenylaminocarbonyl)piperazine-1-sulfonyl]amino}propionamide] | – | < 15 | – |

| IC50 [3] [nM] | SMILES | TNF-α % inhibition [1] [%] | inhibition at 10 µM [2] [%] | inhibition at 2 µM [2] [%] |
| --- | --- | --- | --- | --- |
| – | C[C@@H](NS(=O)(=O)N1CCC(c2cccc3ccccc23)CC1)C(=O)NO [compound 216] | 41 | – | – |
| – | O=C(NO)[C@H]1CCCCN1S(=O)(=O)N1CCCC1 [compound 232, N-hydroxy-1-(pyrrolidine-1-sulfonyl)piperidine-2-(R)-carboxamide] | 73 | – | – |
| 0.2 | CN(C)C(=O)N1CCN(S(=O)(=O)N2CCC(C(=O)c3ccc(Cl)cc3)CC2)[C@@H](C(=O)NO)C1 [compound 298, N-hydroxy-1-[4-(4-chlorobenzoyl)piperidine-1-sulfonyl]-4-(N,N-dimethylaminocarbonyl)piperazine-2-(R)-carboxamide] | – | – | 70 |
| – | CN(C)C(=O)N1CCN(S(=O)(=O)N2CCC(c3ccc(F)cc3)CC2)[C@@H](C(=O)NO)C1 [compound 313, N-hydroxy-4-(N,N-dimethylaminocarbonyl)-1-[4-(4-fluorophenyl)piperidine-1-sulfonyl]piperazine-2-(R)-carboxamide] | – | – | 73 |
| – | O=C(NO)[C@H]1CCCCN1S(=O)(=O)N1CCc2c([nH]c3ccccc23)C1 [compound 314, N-hydroxy-1-[1,2,3,4-tetrahydro-beta-carboline-2-sulfonyl]piperidine-2-(R)-carboxamide] | – | – | 72 |
| 0.1 | CN(C)S(=O)(=O)N1CCN(S(=O)(=O)N2CCC(C(=O)c3ccc(Cl)cc3)CC2)[C@@H](C(=O)NO)C1 [compound 315, N-hydroxy-1-[4-(4-chlorobenzoyl)piperidine-1-sulfonyl]-4-(N,N-dimethylaminosulfonyl)piperazine-2-(R)-carboxamide] | – | – | 86 |
| – | O=C(c1ccc(Cl)cc1)C1CCN(S(=O)(=O)N2CCN(C(=O)c3cnccn3)C[C@@H]2C(=O)NO)CC1 [compound 319, N-hydroxy-1-[4-(4-chlorobenzoyl)piperidine-1-sulfonyl]-4-(1,4-pyrazin-2-yl-carbonyl)-piperazine-2-(R)-carboxamide] | 50 | – | 81 |
| 2.1 | O=C(NO)C1(NS(=O)(=O)N2CCN(c3ccc(Cl)cn3)CC2)CCCCC1 [compound 342] | – | – | – |
| 6.6 | O=C(NO)C1(NS(=O)(=O)N2CCN(c3ccc(Cl)cc3)CC2)CCCCC1 [compound 345, N-hydroxy-1-{[4-(4-chlorophenyl)piperazine-1-sulfonyl]amino}-cyclohexane-1-carboxamide] | – | – | – |
| 56 | CN(Cc1ccccc1)S(=O)(=O)N(CC(=O)NO)Cc1ccccc1 [compound 355] | – | < 15 | – |
| 0.19 | C[C@@H](NS(=O)(=O)N1CC=C(c2ccc(Cl)cc2)CC1)C(=O)NO [compound 401] | – | 97 | – |
| – | O=C(NO)C(NS(=O)(=O)N1CC=C(c2ccc(Cl)cc2)CC1)c1ccc(F)cc1 (centres unmarked) [compound 409] | – | 86 | – |
| 3400 | C[C@@H](NS(=O)(=O)N1CCN(c2ccc(Cl)cc2)CC1)C(=O)O [compound 414, 2-(R)-{[4-(4-chlorophenyl)piperazino-1-sulfonyl]amino}propionic acid] | – | – | – |
| 890 | CN(Cc1ccccc1)S(=O)(=O)N(CC(=O)O)Cc1ccccc1 [compound 430, 2-[benzyl-(benzylmethylaminosulfonyl)amino]acetic acid] | – | – | – |
| 6500 | C[C@H](C(=O)O)N(Cc1ccccc1)S(=O)(=O)NCc1ccccc1 [compound 431] | – | – | – |
